Data published in patent publication US20200061062A1, “INHIBITORS OF HUMAN PHOSPHATIDYLINOSITOL 3-KINASE DELTA” (ICOS Corporation, priority 2000, published 2020).
Like-named read-outs stand apart in the source and are kept apart here.

Key:
[1] = test system: human B cells; test: Antibody production by human B cells (IgG and IgM ELISA); format: cell-based; conditions: B-cell, IL-2 and PANSORBIN stimulation
Method: Heparinized blood (200 mL) from healthy volunteers was mixed with an equal volume of D-PBS, layered on 10×10 mL FICOLL-PAQUE® (Pharmacia), and centrifuged at 1600 rpm for 30 min at room temperature. Peripheral blood mononuclear cells (PBMC) were collected from the FICOLL®/serum interface, overlayed on 10 mL fetal bovine serum (FBS) and centrifuged at 800 rpm for 10 min to remove platelets. After washing, cells were incubated with DYNAL® Antibody Mix (B cell kit) (Dynal Corp., Lake Success, N.Y.) for 20 min at 4-8° C. Following the removal of unbound antibody, PBL were mixed with anti-mouse IgG coated magnetic beads (Dynal) for 20 min at 4-8° C. with gentle shaking followed by elimination of labeled non-B cells on the magnetic bead separator. This procedure was repeated once more. The B cells were resuspended in RPMI-1640 with 10% FBS, and kept on ice until further use.
To study antibody production, B cells were aliquoted at 50-75×10^3 cells/well into 96-well plate with or without inhibitor, to which IL-2 (100 U/mL) and PANSORBIN® (Calbiochem) Staphylococcus aureus cells (1:90,000) were added. […] Samples from each condition (in triplicate) were removed, and analyzed for IgG and IgM, as measured by ELISA. […] Color development was stopped by H2SO4 solution, and plates were read on an ELISA plate reader.

[2] = test system: MEG-01; test: Cancer cell proliferation, [3H]-thymidine incorporation, MEG-01; format: cell-based; conditions: MEG-01 line; 0.001 μM to 20 μM
Method: The effect of compounds of the invention on cancer cell proliferation was evaluated by testing one of the compounds against a panel of Chronic Myeloid Leukemia (CML) cell lines, including KU812, RWLeu4, K562, and MEG-01.
The inhibitory activity of the compound (D-000, dissolved in DMSO) was determined as follows. The tested compound was added in a series of concentrations (0.001 μM to 20 μM) to 96-well microtiter plates with cells (1000 to 5000 cells/well). Plates were incubated for five days at 37° C. during which the control cultures without test compound were able to undergo at least two cell-division cycles. Cell growth was measured by incorporation of [^3H]-thymidine for eighteen hours added at days three, four, and five. Cells were transferred to a filter, washed and the radioactivity counted using a Matrix 96 beta counter (Packard). The percentage of cell growth was measured as follows: […]

**Q.** For `O=c1c2ccccc2nc(CSc2ncnc3[nH]cnc23)n1-c1ccccc1Cl` [Compound D-000, 3-(2-chlorophenyl)-2-(9H-purin-6-ylsulfanylmethyl)-3H-quinazolin-4-one], which IC50 ([1]; FIG. 7, read-out: Half-maximal inhibition of IgG production) is on record?
**A.** The IC50 was about 7 µM.

**Q.** And the IC50 ([1]; FIG. 7, read-out: Half-maximal inhibition of IgM production)?
**A.** Its IC50 is about 1 µM.

**Q.** What about the “Effect on cell growth” value [2] of the same molecule?
**A.** Its value is “not found to exhibit an effect”.
